Experimental data taken from patent publication US5593970A, “Heterocyclic anthracycline analogs” (priority 1994, dated 1997).
Structures can show the parent of a compound that is named as a salt.

Key:
BE-1 = assay: Soft agar colony formation disk diffusion assay; type: cell-based, human
Outline: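 Two-layer agar; upper 0.4% Noble agar/RPMI-1066 with cells, lower 0.8% agar + 0.8% Tryptic Soy Broth. Drug on 6.5 mm filter disk; 37 °C, 5% CO2, 10–20 d. Inhibition zone (disk edge to closest colony) read at 40× with eyepiece micrometer.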

Colon = assay: NCI assay, average per cancer type; settings: Homo sapiens; for CC50: 48 h, read-out: Average LOG10 LC50; for GI50: read-out: Average LOG10 GI50
Melanoma = assay: NCI assay, average per cancer type; settings: Homo sapiens; for CC50: 48 h, read-out: Average LOG10 LC50; for GI50: read-out: Average LOG10 GI50
Renal = assay: NCI assay, average per cancer type; settings: Homo sapiens; for CC50: 48 h, read-out: Average LOG10 LC50; for GI50: read-out: Average LOG10 GI50
solid tumors = assay: NCI assay, mean potency in solid tumors; settings: for CC50 / GI50: Homo sapiens; for CC50: 48 h, read-out: Average LOG10 LC50, Mean Potency in solid tumors; for GI50: read-out: Average LOG10 GI50, Mean Potency in solid tumors

| Compound | zone of inhibition (BE-1; 100 μg/DISK) | CC50 (Colon) | GI50 (Colon) | CC50 (Melanoma) | GI50 (Melanoma) | CC50 (Renal) | GI50 (Renal) | CC50 (solid tumors) | GI50 (solid tumors) | zone of inhibition (BE-1; 10 μg/DISK) | Average LOG10 LC50, Mean Potency in solid tumors (solid tumors; solid tumors, 2880 min) |
| --- | --- | --- | --- | --- | --- | --- | --- | --- | --- | --- | --- |
| CCOC(=O)C1CC2=C(CO1)C(=O)c1cc3ccccc3c(O)c1C2=O (stereo not shown) [BCH-653, Ethyl(6 and 11 hydroxy-5,12-dioxo-3,4,5,12-tetrahydro-anthraceno[2,3-c]pyran-3-yl)]formate] | 76.2 ± 21.5 Zone Units | > 100 µM | 35.5 µM | > 100 µM | 33.1 µM | > 100 µM | 57.5 µM | > 100 µM | 39.8 µM | – | – |
| 3-carbomethoxy-6-hydroxy-1,2,3,4-tetrahydro-(2-sulfur)naphthacene-5,12-dione and 3-carbomethoxy-11-hydroxy-1,2,3,4-tetrahydro(2-sulfur)naphthacene-5,12-dione [BCH-693] | 76.2 ± 21.5 Zone Units | – | – | – | – | – | – | – | – | 0 Zone Units | – |
| COC(=O)[C@H]1CC2=C(C(=O)c3c(c(OC)c4ccccc4c3O)C2=O)[C@H](O[C@H]2C[C@H](NC(=O)C(F)(F)F)[C@H](O)[C@H](C)O2)O1 (mixture of isomers) [BCH-675, (1'S,1S,3R) and 1'S,1R,3S) Methyl(11-hydroxy-6-methoxy-1-[2',3',6'-trideoxy-3-trifluoroacetamido-4'-hydroxy-L-lyxohexopyranose]-5,12-dioxo-3,4,5,12-tetrahydroanthra-ceno[2,3-c]pyran-3-yl) formate] | 46.7 ± 5.3 Zone Units | 85.1 µM | 8.71 µM | 79.4 µM | 5.89 µM | 56.2 µM | 9.12 µM | 66.1 µM | 8.32 µM | 0 Zone Units | – |
| CCOC(=O)C1CC2=C(CO1)C(=O)c1c(c(O)c3ccccc3c1OC(C)=O)C2=O (stereo not shown) [BCH-654, Ethyl[11-acetoxy-6-hydroxy-5,12-dioxo-3,4,5,12-tetrahydroanthraceno(2,3-c)pyran-3-yl]formate] | 153.0 ± 1.4 Zone Units | – | – | – | – | – | – | – | – | 24.4 ± 8.6 Zone Units | – |
| CCOC(=O)[C@@H]1CC2=C(C(=O)c3cc4ccccc4c(O)c3C2=O)[C@@H](O[C@H]2C[C@H](NC(=O)C(F)(F)F)[C@H](O)[C@H](C)O2)O1 [BCH-681, (1'S,1R,3S)Ethyl[6-hydroxy-5,12-dioxo-1-(3'-trifuloroacetamido-1-daunosaminyl)-3,4,5,12-tetrahydroanthraceno(2,3-C)pyran-3-yl]formate] | – | 7.24 µM | 1.41 µM | 5.01 µM | 1.12 µM | 21.9 µM | 3.02 µM | 12.3 µM | 2.09 µM | – | – |
| 3-(2-hydroxy)aceto-6-hydroxy-1,2,3,4-tetrahydro-(2-oxygen)naphthacene-5,12-dione and 3-(2-hydroxy)aceto-11-hydroxy-1,2,3,4-tetrahydro-(2-oxygen)naphthacene-5,12-dione [BCH-694] | 189.0 ± 8.4 Zone Units | – | – | – | – | – | – | – | – | 54.9 ± 8.6 Zone Units | – |
| CCOC(=O)C1CC2=C(CO1)C(=O)c1c(cc3ccccc3c1O)C2=O (stereo not shown) [BCH-651, Ethyl(6 and 11 hydroxy-5,12-dioxo-3,4,5,12-tetrahydro-anthraceno[2,3-c]pyran-3-yl)]formate] | 106.7 ± 21.5 Zone Units | 41.7 µM | 3.39 µM | 34.7 µM | 2.75 µM | 55 µM | 10 µM | 50.1 µM | 5.25 µM | 0 Zone Units | – |
| COC(=O)[C@@H]1CC2=C(C(=O)c3c(c(OC)c4ccccc4c3O)C2=O)[C@@H](O[C@H]2C[C@H](NC(=O)C(F)(F)F)[C@H](O)[C@H](C)O2)O1 (mixture of isomers) [BCH-674, (1'S,1S,3R) and 1'S,1R,3S) Methyl(11-hydroxy-6-methoxy-1-[2',3',6'-trideoxy-3-trifluoroacetamido-4'-hydroxy-L-lyxohexopyranose]-5,12-dioxo-3,4,5,12-tetrahydroanthra-ceno[2,3-c]pyran-3-yl) formate] | – | 97.7 µM | 13.5 µM | 89.1 µM | 13.2 µM | 57.5 µM | 8.91 µM | 81.3 µM | 12.3 µM | – | -4.09 ± 0.11 log molar |
| COC(=O)[C@@H]1CC2=C(C(=O)c3c(cc4ccccc4c3O)C2=O)[C@@H](O[C@H]2C[C@H](NC(=O)C(F)(F)F)[C@H](O)[C@H](C)O2)O1 [BCH-691, (1'S,1R,3S)-Methyl-{11-hydroxy-1-(2',3',6'-trideoxy-3'-trifluoroacetamido-4'-hydroxy-L-lyxoheoxpyranose)-5,12-dioxo-3,4,5,12-tetrahydroanthraceno[2,3-c]pyran-3-yl}formate] | 155.5 ± 50.3 Zone Units | – | – | – | – | – | – | – | – | 55.0 ± 10.0 Zone Units | – |
| COC(=O)[C@H]1CC2=C(C(=O)c3c(cc4ccccc4c3O)C2=O)[C@H](O[C@H]2C[C@H](NC(=O)C(F)(F)F)[C@H](O)[C@H](C)O2)O1 (mixture of isomers) [BCH-692, (1'S,1S,3R) and (1'S,1R,3S) Methyl[11-hydroxy-1-(2',3',6'-trideoxy-3'-trifluoroacetamido-4'-hydroxy-L-lyxohexopyranose)-5,12-dioxo-3,4,5,12-tetrahydro-anthraceno[2,3-c]pyran-3-yl]formate] | 100.0 ± 50.0 Zone Units | – | – | – | – | – | – | – | – | 0 Zone Units | – |
| CCOC(=O)[C@@H]1CC2=C(C(=O)c3c(c(O)c4ccccc4c3OC(C)=O)C2=O)[C@@H](O)O1 (mixture of isomers) [BCH-658, (1S,3S) and (1R,3R) Ethyl[11-acetoxy-1,6-dihydroxy-5,12-dioxo-3,4,5,12-tetrahydroanthraceno (2,3-c)pyran-3-yl]formate] | 0 Zone Units | > 100 µM | 61.7 µM | > 100 µM | > 100 µM | > 100 µM | 46.8 µM | > 100 µM | 51.3 µM | 0 Zone Units | – |
| CCOC(=O)[C@@H]1CC2=C(C(=O)c3cc4ccccc4c(OC(C)=O)c3C2=O)[C@@H](O)O1 (mixture of isomers) [BCH-660, (1S,3S) and (1R,3R)-Ethyl-[6-acetoxy-1-hydroxy-5,12-dioxo-3,4,5,12-tetrahydroanthraceno (2,3-c)pyran-3-yl]formate] | 125.0 ± 12.7 Zone Units | > 100 µM | 0.617 µM | 10.5 µM | 0.955 µM | 7.94 µM | 0.912 µM | 11.2 µM | 0.891 µM | 45.7 ± 21.5 Zone Units | – |
